Common to all, as to format: cell-based
The target in series [1] is T1, human H4 receptor (Homo sapiens, UniProt Q9H3N8).
T1 construct: expressed in transfected cells; host or cells: HEKf cells infected with baculovirus
As to the kind of experiment: H4 Antagonist Functional cAMP Gi Assay. The following applies: HEKf cells expressing human H4 receptor; functional antagonist pKb by Cheng-Prusoff vs histamine; read-out: Human H4 cAMP fpKb (converted). The method, then:
HEKf cells were infected overnight using baculovirus expressing the human H4 receptor, then centrifuged at 1,200 rpm for 5 min, frozen in cell freezing medium (Sigma) and stored at −150° C. On the day of assay, the cells were thawed and resuspended in HBSS with 500 nM IBMX to achieve a density of 1,500 cells/well. H4 ligands were prepared in DMSO and stamped by LabCyte ECHO acoustic dispensing at 25 nL in low volume plates. 10 μL/well cells were plated in the presence of 1 μM forskolin, subjected to centrifugation at 1,200 rpm for 1 min and incubated for 30 min prior to addition of Cisbio cAMP detection reagents to a total volume 20 μL/well. […] Following detection reagent addition and shaking at room temperature for 60 min, cAMP accumulation was measured using HTRF on a PheraStar plate reader. EC50 values were generated using a 4-parameter logistical fit equation to quantify agonist potencies. Functional antagonist affinity values were generated using the Cheng-Prusoff equation to calculate a pKb value using the antagonist assay data.

Another series concerns the target hERG (Homo sapiens, UniProt Q12809). Put plainly: hERG single-concentration assay (QPatch automated patch clamp, CHO cells, 30 μM). The following applies: CHO cells stably expressing hERG. The text has this: Series resistance (4-15 MΩ) was compensated by >80%.
Series [2] addresses T1, human H4 receptor. As to the kind of experiment: H4 Antagonist Functional Dynamic Mass Redistribution Assay. The following applies: HEKf cells expressing human H4 receptor; functional antagonist pKb by Cheng-Prusoff vs histamine EC80; read-out: Human H4 DMR fpKb (converted). The method, then:
HEKf cells were infected using baculovirus expressing the human H4 receptor, plated into fibronectin-coated EPIC plates at a density of 10,000 cells/well and incubated overnight at 37° C. The medium on cells was changed to 30 μL HBSS with 20 mM HEPES per well and 30 nL DMSO were added per well by LabCyte ECHO acoustic dispensing. Following 2 h equilibration at room temperature, 30 nL of H4 ligands prepared in DMSO were stamped by LabCyte ECHO acoustic dispensing into seeded EPIC plates and cellular dynamic mass redistribution was monitored using a Corning EPIC plate reader. Following 45 min measurement, 30 nL/well of histamine EC80 was added and monitored to obtain antagonist assay data. Maximum baseline-corrected responses in pm were used to generate concentration response curves. EC50 values were generated using a 4-parameter logistical fit equation to quantify agonist potencies. Functional antagonist affinity values were generated using the Cheng-Prusoff equation to calculate a pKb value using the antagonist assay data.

One may read the inhibition as the share of the control response that was lost under treatment. The low end stands for little suppression, the high end for strong suppression.

T1 sequence (Q9H3N8 whole entry): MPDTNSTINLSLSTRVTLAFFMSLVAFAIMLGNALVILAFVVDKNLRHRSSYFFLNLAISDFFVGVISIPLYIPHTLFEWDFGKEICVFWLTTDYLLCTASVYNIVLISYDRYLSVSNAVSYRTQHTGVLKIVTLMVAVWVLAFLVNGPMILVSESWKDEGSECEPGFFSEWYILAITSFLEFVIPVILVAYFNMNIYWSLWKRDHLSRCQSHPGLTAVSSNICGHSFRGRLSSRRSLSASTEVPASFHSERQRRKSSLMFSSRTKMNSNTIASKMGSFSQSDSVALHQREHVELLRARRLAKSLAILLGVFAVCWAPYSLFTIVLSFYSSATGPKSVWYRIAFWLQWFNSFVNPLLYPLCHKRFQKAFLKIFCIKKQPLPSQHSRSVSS
Sequence of hERG (Q12809 whole entry): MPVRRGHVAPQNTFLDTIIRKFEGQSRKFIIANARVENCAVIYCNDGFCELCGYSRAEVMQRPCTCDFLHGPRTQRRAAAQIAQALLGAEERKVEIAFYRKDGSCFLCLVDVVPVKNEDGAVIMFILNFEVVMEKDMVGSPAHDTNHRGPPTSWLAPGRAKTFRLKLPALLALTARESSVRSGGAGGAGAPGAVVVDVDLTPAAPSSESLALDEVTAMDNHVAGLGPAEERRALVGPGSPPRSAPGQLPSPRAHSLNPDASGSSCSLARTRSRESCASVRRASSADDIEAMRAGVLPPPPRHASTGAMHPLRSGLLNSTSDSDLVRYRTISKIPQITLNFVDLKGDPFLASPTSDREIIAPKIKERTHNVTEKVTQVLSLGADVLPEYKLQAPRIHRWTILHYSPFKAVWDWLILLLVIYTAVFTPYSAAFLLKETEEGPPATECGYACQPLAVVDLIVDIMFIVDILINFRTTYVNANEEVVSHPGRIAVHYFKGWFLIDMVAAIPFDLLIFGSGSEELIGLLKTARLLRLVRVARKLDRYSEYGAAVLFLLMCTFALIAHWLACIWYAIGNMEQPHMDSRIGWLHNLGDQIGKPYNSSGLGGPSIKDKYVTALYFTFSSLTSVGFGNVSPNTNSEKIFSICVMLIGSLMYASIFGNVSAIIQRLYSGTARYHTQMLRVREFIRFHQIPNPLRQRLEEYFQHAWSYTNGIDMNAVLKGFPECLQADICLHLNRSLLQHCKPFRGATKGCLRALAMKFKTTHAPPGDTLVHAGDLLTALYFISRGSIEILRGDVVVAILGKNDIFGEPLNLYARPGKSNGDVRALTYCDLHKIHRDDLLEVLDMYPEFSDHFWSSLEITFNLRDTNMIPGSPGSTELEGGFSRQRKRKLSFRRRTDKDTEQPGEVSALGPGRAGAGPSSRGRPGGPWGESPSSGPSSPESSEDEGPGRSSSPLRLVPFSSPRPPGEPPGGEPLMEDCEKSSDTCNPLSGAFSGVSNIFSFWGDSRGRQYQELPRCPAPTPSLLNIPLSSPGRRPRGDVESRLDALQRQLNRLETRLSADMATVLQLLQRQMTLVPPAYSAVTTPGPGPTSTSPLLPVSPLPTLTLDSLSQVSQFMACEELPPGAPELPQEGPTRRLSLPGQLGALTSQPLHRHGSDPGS

For `CN[C@@H]1CCN(c2ncnc3c2OC[C@@H](C(C)C)N3)C1` [Example 7-1, (R)-1-((R)-7-Isopropyl-7,8-dihydro-6H-pyrimido[5,4-b][1,4]oxazin-4-yl)-N-methylpyrrolidin-3-amine], at human H4 receptor [1], the Kb is 0.631 nM. For the same compound, testing at 30 µM on hERG gave an inhibition of 31%. Take `CNC1CN(c2ncnc3c2OC[C@@H](C(C)C)N3)C1` [Example 9-1, (R)-1-(7-Isopropyl-7,8-dihydro-6H-pyrimido[5,4-b][1,4]oxazin-4-yl)-N-methylazetidin-3-amine]: the Kb at human H4 receptor [1] is 3.98 nM. The same compound gave an inhibition at 30 µM against hERG of 18%. Consider `CC(C)[C@@H]1COc2c(nc(N)nc2N2CCNCC2)N1` [Example 6-1, (R)-7-Isopropyl-4-(piperazin-1-yl)-7,8-dihydro-6H-pyrimido[5,4-b][1,4]oxazin-2-amine], for which, on human H4 receptor [1], the Kb was 3.98 nM. In addition, at 30 µM the inhibition at hERG was 13%. For `CN[C@@H]1CCN(c2nc(N)nc3c2OC[C@@H](COC)N3)C1` [Example 1-9, (R)-7-(Methoxymethyl)-4-((R)-3-(methylamino)pyrrolidin-1-yl)-7,8-dihydro-6H-pyrimido[5,4-b][1,4]oxazin-2-amine], the Kb at human H4 receptor [1] was 10 nM. On hERG, this compound returned an inhibition at 30 µM of 12%.

Consider `CN[C@@H]1CCN(c2nc(N)nc3c2OCC2(CCCC2)N3)C1` [Example 17-11, 4′-[(3R)-3-(methylamino)pyrrolidin-1-yl]-6′H,8′H-spiro[cyclopentane-1,7′-pyrimido[5,4-b][1,4]oxazin]-2′-amine], for which the Kb at human H4 receptor [2] was 7.94 nM. Regarding `CN[C@@H]1CCN(c2nc(N)nc3c2OC[C@@H](C(C)(C)OC)N3)C1` [Example 1-12, (S)-7-(2-Methoxypropan-2-yl)-4-((R)-3-(methylamino)pyrrolidin-1-yl)-7,8-dihydro-6H-pyrimido[5,4-b][1,4]oxazin-2-amine], the Kb at human H4 receptor [1] is 2 nM. In addition, at hERG, the inhibition at 30 µM amounted to 8.3%. As for `CN[C@@H]1CCN(c2nc(N)nc3c2OC(C)CN3)C1` (stereo partly drawn) [Example 1-15, 6-Methyl-4-((R)-3-(methylamino)pyrrolidin-1-yl)-7,8-dihydro-6H-pyrimido[5,4-b][1,4]oxazin-2-amine], the Kb on human H4 receptor [1] is 398 nM. The inhibition at 30 µM at hERG came to 1.5%. Taken in the same sequence, the figures for `CN[C@@H]1CCN(c2nc(N)nc3c2OCC(C(F)(F)F)N3)C1` (stereo partly drawn) [Example 1-8, 4-((R)-3-(Methylamino)pyrrolidin-1-yl)-7-(trifluoromethyl)-7,8-dihydro-6H-pyrimido[5,4-b][1,4]oxazin-2-amine] were 10 nM and 19%. On to `CCC1(C)CCOc2c(nc(N)nc2N2CC[C@@H](NC)C2)N1` (stereo partly drawn) [Example 17-10, 8-ethyl-8-methyl-4-[(3R)-3-(methylamino)pyrrolidin-1-yl]-6,7,8,9-tetrahydropyrimido[5,4-b][1,4]oxazepin-2-amine], for which, at human H4 receptor [2], the Kb is 10 nM. On to `Cc1cc(C)c2nc(-c3cnc(NCCCC4CCN(C)CC4)nc3C)[nH]c2c1` [Toreforant, reference compound], for which the Kb on human H4 receptor [1] is 20 nM. In addition, at hERG, the inhibition at 30 µM was 89%. On to `CC[C@@H]1CCOc2c(nc(N)nc2N2CC(NC)C2)N1` [Example 17-6, 8-ethyl-4-[3-(methylamino)azetidin-1-yl]-6,7,8,9-tetrahydropyrimido[5,4-b][1,4]oxazepin-2-amine], for which the Kb on human H4 receptor [2] is 10 nM. In the case of `CC[C@@H]1COc2c(nc(N)nc2N2CC[C@@H](NC)C2)N1` [Example 1-3, (R)-7-Ethyl-4-((R)-3-(methylamino)pyrrolidin-1-yl)-7,8-dihydro-6H-pyrimido[5,4-b][1,4]oxazin-2-amine], the Kb on human H4 receptor [1] was 1 nM. Also, at hERG, testing at 30 µM gave an inhibition of 18%.

Take `CC(C)[C@@H]1COc2c(nc(N)nc2N2CCN(C)CC2)N1` [Example 5-1, (R)-7-Isopropyl-4-(4-methylpiperazin-1-yl)-7,8-dihydro-6H-pyrimido[5,4-b][1,4]oxazin-2-amine]: the Kb on human H4 receptor [1] is 3.16 nM. Further, the inhibition at 30 µM at hERG is 44%. As for `CN[C@@H]1CCN(c2ncnc3c2OCC2(CCCC2)N3)C1` [Example 17-12, (3R)—N-methyl-1-(6′H,8′H-spiro[cyclopentane-1,7′-pyrimido[5,4-b][1,4]oxazin]-4′-yl)pyrrolidin-3-amine], the Kb at human H4 receptor [2] is 7.94 nM. Turning to `Nc1nc2c(c(N3CC[C@@H](N)C3)n1)OCC1CCCC1N2` (stereo partly drawn) [Example 17-2, 4-[(3R)-3-aminopyrrolidin-1-yl]-6a, 7,8,9,9a, 10-hexahydro-6H-cyclopenta[e]pyrimido[5,4-b][1,4]oxazepin-2-amine], the Kb on human H4 receptor [2] is 20 nM. Turning to `CC[C@@H]1CCOc2c(nc(N)nc2N2C[C@H]3CCCN[C@H]3C2)N1` [Example 17-8, 8-ethyl-4-[(4aR,7aR)-octahydro-6H-pyrrolo[3,4-b]pyridin-6-yl]-6,7,8,9-tetrahydropyrimido[5,4-b][1,4]oxazepin-2-amine], at human H4 receptor [2], the Kb is 15.8 nM. With `CN[C@@H]1CCN(c2ncnc3c2OCC(COC)N3)C1` (stereo partly drawn) [Example 7-3, (3R)-1-(7-(Methoxymethyl)-7,8-dihydro-6H-pyrimido[5,4-b][1,4]oxazin-4-yl)-N-methylpyrrolidin-3-amine], on human H4 receptor [1], the Kb was 316 nM. The compound further registered an inhibition at 30 µM on hERG of 48%. For the compound `CN[C@@H]1CCN(c2nc(N)nc3c2OC[C@@]2(C)CCCN32)C1` [Example 1-22, (R)-6a-Methyl-4-((R)-3-(methylamino)pyrrolidin-1-yl)-6a,7,8,9-tetrahydro-6H-pyrimido[5,4-b]pyrrolo[1,2-d][1,4]oxazin-2-amine], the Kb at human H4 receptor [1] is 251 nM. Also, at hERG, the inhibition at 30 µM is 45%. Take `CN[C@@H]1CCN(c2cc(NCC3CC3)nc(N)n2)C1` [PF-3893787, reference compound]: the inhibition at 30 µM against hERG worked out at 67%. For `CN[C@@H]1CCN(c2nc(N)nc3c2OCCN3)C1` [Example 1-1, (R)-4-(3-(Methylamino)pyrrolidin-1-yl)-7,8-dihydro-6H-pyrimido[5,4-b][1,4]oxazin-2-amine], the Kb on human H4 receptor [1] was 501 nM. The same compound returned an inhibition at 30 µM at hERG of 25%. Take `Nc1nc2c(c(N3CC[C@@H](N)C3)n1)OCC(C(F)(F)F)N2` (stereo partly drawn) [Example 2-3, 4-((R)-3-Aminopyrrolidin-1-yl)-7-(trifluoromethyl)-7,8-dihydro-6H-pyrimido[5,4-b][1,4]oxazin-2-amine]: the Kb at human H4 receptor [1] is 10 nM. For the same compound, on hERG, testing at 30 µM gave an inhibition of 28%. Taken in the same sequence, the figures for `CN[C@@H]1CCN(c2nc(N)nc3c2OC[C@H](C(C)C)N3)C1` [Example 1-5, (S)-7-Isopropyl-4-((R)-3-(methylamino)pyrrolidin-1-yl)-7,8-dihydro-6H-pyrimido[5,4-b][1,4]oxazin-2-amine] were 25.1 nM and 68%. On to `CN[C@@H]1CCN(c2nc(N)nc3c2OCC(C)(C)N3)C1` [Example 1-14, (R)-7,7-Dimethyl-4-(3-(methylamino)pyrrolidin-1-yl)-7,8-dihydro-6H-pyrimido[5,4-b][1,4]oxazin-2-amine], for which the Kb on human H4 receptor [1] was 6.31 nM. Besides, the inhibition at 30 µM against hERG worked out at 11%. Taken in the same sequence, the figures for `CC(C)[C@@H]1COc2c(ncnc2N2CC[C@@H](N)C2)N1` [Example 8-1, (R)-1-((R)-7-Isopropyl-7,8-dihydro-6H-pyrimido[5,4-b][1,4]oxazin-4-yl)pyrrolidin-3-amine] were 5.01 nM and 21%. In the case of `CNC1CN(c2nc(N)nc3c2OC[C@@H]([C@@H](C)OC)N3)C1` [Example 3-4, (S)-7-((R)-1-Methoxyethyl)-4-(3-(methylamino)azetidin-1-yl)-7,8-dihydro-6H-pyrimido[5,4-b][1,4]oxazin-2-amine], on human H4 receptor [1], the Kb was 12.6 nM. At hERG, this compound gave an inhibition at 30 µM of 12%. For `CN[C@@H]1CCN(c2nc(N)nc3c2OC[C@@H]([C@@H](C)OC)N3)C1` [Example 1-10, (S)-7-((R)-1-Methoxyethyl)-4-((R)-3-(methylamino)pyrrolidin-1-yl)-7,8-dihydro-6H-pyrimido[5,4-b][1,4]oxazin-2-amine], in that order: 6.31 nM and 12%.

As for `CN[C@@H]1CCN(c2nc(N)nc3c2OCC2CCCN32)C1` (stereo partly drawn) [Example 1-21, 4-((R)-3-(Methylamino)pyrrolidin-1-yl)-6a,7,8,9-tetrahydro-6H-pyrimido[5,4-b]pyrrolo[1,2-d][1,4]oxazin-2-amine], at human H4 receptor [1], the Kb is 12.6 nM. For the same compound, the inhibition at 30 µM against hERG was 8.5%.

As for `CNC1CN(c2nc(N)nc3c2OC[C@@H](C(C)(C)OC)N3)C1` [Example 3-6, (S)-7-(2-Methoxypropan-2-yl)-4-(3-(methylamino)azetidin-1-yl)-7,8-dihydro-6H-pyrimido[5,4-b][1,4]oxazin-2-amine], the Kb at human H4 receptor [1] is 25.1 nM.

These data come from US20240317775A1, “H4 Antagonist Compounds” (HEPTARES THERAPEUTICS LIMITED, priority 2020, published 2024).
